Where two headings read alike, the source gives them in different places.
Legend:
human H3 receptors [1] = molecular target: T1, human H3 receptors (Homo sapiens (Human), UniProt Q9Y5N1); experiment: Potency assessment: blockade of (R)-alpha-methylhistamine-mediated cAMP production (LANCE Ultra cAMP kit); assay type: cell-based; conditions: CHO cells expressing human H3 receptors
Description: The potency of compounds of the invention as H3 receptor antagonists can be assessed by measuring the blockade of (R)-alpha-methylhistamine-mediated cAMP production utilizing a LANCE Ultra cAMP kit (PE #TRF0263) in CHO cells expressing human H3 receptors (GenBank: BC096840; Strausberg R L et al, Proc. Natl. Acad. Sci. U.S.A. 99(26), 16899-16903; 2002).
2. Preparation of assay plate: Different concentrations of the compounds of the invention (0.01-1000 nM), H3 positive controls and cAMP calibration standards; […] Forskolin (CALBIOCHEM #344270); 5 μM (R)-alpha-methylhistamine (H3 receptor agonist); 1% DMSO (SIGMA #D2650); total volume: 95 nl.
3. Preparation of the cell solution: Collect cells with stimulation buffer, final density: 100,000 cells/ml.
4. Reaction: (a) transfer 10 μl of cell solution to assay plate, (b) centrifuge at 600 rpm for 3 min and incubate 50 min at room temperature, (c) add 5 μL 4× Eu-cAMP tracer solution (60 μl Eu-cAMP tracer stock solution+2.94 ml cAMP detection buffer) and 5 μL 4× ULight™-anti-cAMP solution (20 μl […]+2.98 ml cAMP detection buffer) to assay plate.
5. Reading plate on EnVision: flash energy: 100%; excitation filter: 111 UV2 320; emission filter: 203 (Eu 615) and 205 (APC 665); number of laser flashes: 20; window: 100 μs; laser mirror module: 445 or 446; laser cycle: 16,600 μs.
6. Data analysis by GraphPad Prism: log (compound concentration) vs. response; variable slope.

human H3 receptors [2] = molecular target: T1, human H3 receptors; experiment: Affinity assessment: displacement of [3H]-N-α-Methylhistamine binding to membranes; conditions: membranes containing human H3 receptors, radioligand [3H]-N-α-Methylhistamine
Description: The affinity of compounds of the invention to the H3 receptor can be assessed by measuring displacement of binding of the radioligand [3H]-N-α-Methylhistamine (PerkinElmer, #NET1027250UC) to membranes containing human H3 receptors (PerkinElmer, #ES-392-M400UA; GenBank: NM_007232.2; Hill S J et al, International Union of Pharmacology XIII. Classification of histamine receptors, Pharmacol Rev, 49(3), 253-278, 1997).
2. Compound serial dilution: Dilution was performed by BioTek Precision on compound dilution plate. Compound concentrations start at 5 or 10 μM, 10 point dose titrations with 3- or 5-fold serial dilutions.
3. Preparation of 2× membrane solution (25 ml): 1.25 ml human Histamine H3 receptor stock, 23.75 ml assay buffer.
4. Preparation of 2× solution of [3H]-N-α-methylhistamine (25 ml): 4.27 μl [3H]-N-α-methylhistamine stock, 25 ml assay buffer.
5. Assemble binding reaction: (a) transfer 1 μl of compound solution, 1 μl 100% DMSO and 1 μl 1 M (R)(−)-α-Methylhistamine (Sigma, #H128) to the reaction plate at room temperature, (b) transfer 50 μl of 2× protein solution to reaction plate, (c) transfer 49 μl of 2× radioligand solution to reaction plate (Corning® 96 well EIA/RIA plate; Sigma, #CLS3797).
6. Cover the reaction plate with a TopSeal™-A film (Perkin Elmer, #6005185) and incubate at 28° C. for 120 min. Equilibrate Zeba Spin Desalting Plates (Thermo Scientific, #89808) to room temperature for 120 min.
7. Remove the sealing material from the bottom of the filtration plate. Place the plate on a wash plate. Centrifuge at 1000 g for 2 min to remove the storage buffer at room temperature.
8. Transfer 70 μl binding reaction from reaction plate into filtration plates. Place the filtration plates on top of collection plate. Centrifuge the plate assembly at 1000 g for 2 min to collect the protein with bound radioligand. Add 200 μl of Microscint-40 (PerkinElmer, #6013641-1L) to each well of the collection plate. Cover the plates with TopSeal™-A film.
9. Read the plates on Wallac Microbeta Trilux 2450, Instrument settings: counting mode: CPM, counting time: 2 min.
10. Data analysis: GraphPad Prism: log (compound concentration) vs. response; variable slope. The Ki is calculated based on Chang and Prusoff: Ki=IC50/{1+([radioligand]/Kd)}

[3] = Solubility of solid forms in aqueous media; assay type: physicochemical

T1 sequence (Q9Y5N1 whole entry): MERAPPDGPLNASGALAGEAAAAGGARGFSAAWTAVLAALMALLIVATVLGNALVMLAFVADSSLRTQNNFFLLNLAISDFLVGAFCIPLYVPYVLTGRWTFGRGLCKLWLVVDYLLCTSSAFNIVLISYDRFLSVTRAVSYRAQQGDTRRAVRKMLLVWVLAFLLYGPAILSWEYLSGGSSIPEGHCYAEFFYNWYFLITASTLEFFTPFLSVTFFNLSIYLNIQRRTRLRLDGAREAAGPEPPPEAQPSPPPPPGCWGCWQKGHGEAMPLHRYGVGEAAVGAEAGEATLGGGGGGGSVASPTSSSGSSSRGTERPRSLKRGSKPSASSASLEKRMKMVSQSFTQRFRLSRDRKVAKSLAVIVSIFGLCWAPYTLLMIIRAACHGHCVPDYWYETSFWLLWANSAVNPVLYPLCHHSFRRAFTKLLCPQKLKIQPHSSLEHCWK

`O=C(OC1CCN(c2ccc(=O)[nH]n2)CC1)N1CCN(C2CC2)CC1` [Example 1.4, 1-(6-oxo-1,6-dihydropyridazin-3-yl)piperidin-4-yl 4-cyclopropylpiperazine-1-carboxylate] gave a Ki (human H3 receptors [1]) of 2.3 nM and a Ki (human H3 receptors [2]) of 25 nM.

For `Cn1nc(N2CCC(OC(=O)N3CCN(C4CCC4)CC3)CC2)ccc1=O` [Example 1.5, 1-(1-methyl-6-oxo-1,6-dihydropyridazin-3-yl)piperidin-4-yl 4-cyclobutylpiperazine-1-carboxylate], the Ki (human H3 receptors [1]) was 1.1 nM and the Ki (human H3 receptors [2]) was 25 nM.

`CCn1nc(N2CCC(OC(=O)N3CCN(C(C)C)CC3)CC2)ccc1=O` [Example 1.6, 1-(1-ethyl-6-oxo-1,6-dihydropyridazin-3-yl)piperidin-4-yl 4-isopropylpiperazine-1-carboxylate] gave a Ki (human H3 receptors [1]) of 2.9 nM and a Ki (human H3 receptors [2]) of 44 nM.

`CC(C)N1CCN(C(=O)OC2CCN(c3ccn(C)c(=O)c3)CC2)CC1` [Example 2.1, 1-(1-methyl-2-oxo-1,2-dihydropyridin-4-yl)piperidin-4-yl 4-isopropylpiperazine-1-carboxylate] showed a Ki (human H3 receptors [1]) of 3.1 nM and a Ki (human H3 receptors [2]) of 20 nM.

`O=C(OC1CCN(c2cc[nH]c(=O)c2)CC1)N1CCN(C2CCC2)CC1` [Example 2.2, 1-(2-oxo-1,2-dihydropyridin-4-yl)piperidin-4-yl 4-cyclobutylpiperazine-1-carboxylate] showed a Ki (human H3 receptors [1]) of 0.5 nM and a Ki (human H3 receptors [2]) of 25 nM.

With `CC(C)N1CCN(C(=O)OC2CCN(c3cc[nH]c(=O)c3)CC2)CC1` [Example 2.3, 1-(2-oxo-1,2-dihydropyridin-4-yl)piperidin-4-yl 4-isopropylpiperazine-1-carboxylate] the Ki (human H3 receptors [1]) was 0.9 nM and the Ki (human H3 receptors [2]) was 12 nM.

For `CC(C)N1CCN(C(=O)OC2CCN(c3ccc(=O)[nH]c3)CC2)CC1` [Example 3.1, 1-(6-oxo-1,6-dihydropyridin-3-yl)piperidin-4-yl 4-isopropylpiperazine-1-carboxylate], the Ki (human H3 receptors [1]) was 1.6 nM and the Ki (human H3 receptors [2]) was 1.2 nM.

With `Cn1nc(N2CCC(OC(=O)N3CCN(C4CCC4)CC3)CC2)ccc1=O` [Form A of the free from, 1-(1-methyl-6-oxo-1,6-dihydropyridazin-3-yl)piperidin-4-yl 4-cyclobutylpiperazine-1-carboxylate] the “solubility in aqueous media” value ([3]; across a pH range from about 1-8) was “good solubility”.

In the case of `Cn1nc(N2CCC(OC(=O)N3CCN(C4CCC4)CC3)CC2)ccc1=O` [Form B of the free from, 1-(1-methyl-6-oxo-1,6-dihydropyridazin-3-yl)piperidin-4-yl 4-cyclobutylpiperazine-1-carboxylate], the “solubility in aqueous media” value [3] is reported as “good solubility”.

— patent US9034874B2, “Carbamate/urea derivatives” (NOVARTIS AG, priority 2012, dated 2015)
